From ChEMBL document CHEMBL1122154, “Serotonin receptor affinity of cathinone and related analogues” (J Med Chem, 1982) come the findings set out here.

For this test, the target named is Serotonin (5-HT) receptor. The test can be described thus: Affinity for 5-hydroxytryptamine receptor was determined using male Dawley rat fundus preparation. Format: protein assay.

As for `COc1ccc2c(c1)C(CN)CCO2` (stereo not given), the pA2 is 5.94. The result for `NC1CCc2ccccc2C1=O` (stereo not given) reads 6.04; that for `NC1CCc2ccccc2C1` (stereo not given), 5.61; that for `NCC1=CCOc2ccccc21`, 4.94. The result for `COc1ccc2c(c1)C(CN)=CCO2` reads 6.12; that for `NCC1=CCCc2ccccc21`, 5.81.

In turn, `NCC(N)c1ccccc1` (racemic) came in with a pA2 of 4.9. In the case of `COc1ccc(C(=O)C(C)N)cc1OC` (racemic), the pA2 is on record as 6.14. Under `CC(N)C(=O)c1ccc(O)cc1` (racemic) [HYDROXYLATED COMPLETELY DELAKYLATED DIETHYLPROPION] stands 5.3; under `CC(N)C(=O)c1ccccc1` (stereo not given) [DEALKYLATED DIETHYLPROPION], 5.86.

As a reminder, the pA2 is a measure of antagonist potency on a negative log scale.
